Reference: paper PMC10683025, “Discovery of a Hydroxylamine-Based Brain-Penetrant EGFR Inhibitor for Metastatic Non-Small-Cell Lung Cancer” (Journal of Medicinal Chemistry, 2023)
Values after ≈ are worked out from the molar mass of the structure shown. Read-outs that look alike come from different tables or passages of the source.

Key:
[1] = system: HCC827 (EGFR mutation = exon19del); assay: CellTiter-Glo cell viability assay; type: cell-based, human; settings: Homo sapiens, HCC827; 72 h, unadjusted for FBS
Description: (§2) The NCI-H3255 cell line was obtained from CoBioer. […] NCI-H3255 cells were cultured in BEGM (Lonza) with 10% FBS. […] All cells were cultured in a humidified incubator with 5% CO2 at 37 °C.
(§3) Viability assays using A431, HCC827, NCI-H1975, NCI-H3255, Ba/F3 EGFR-del E746_A750/C797S, Ba/F3 EGFR-L858R/C797S, AU565, SK-BR-3, and ZR-75-30 cells were performed at Crown BioScience.

[2] = Plasma stability; type: in vitro ADME, human; settings: human plasma
Description: (§1) Assessment of compounds to determine stability in incubations containing plasma of human (Pharmaron) and Sprague-Dawley rat (IPHASE) was performed by Pharmaron, Inc. using the compound […] approach. Compounds were assessed in duplicate (n = 2) and incubated in plasma at 5 μM and samples (50 μL) were taken at 0, 15, 30, 60, and 120 min time points for analysis by LC-MS/MS. Peak area ratios were determined from the extracted ion chromatogram and the percent compound remaining at each time point was calculated by the following equation: [drawing 2] where peak area ratiot min is the peak area ratio of control and test compound at t min and peak area ratio0 min is the peak area ratio of control and test compound at zero time point.

[3] = Metabolic stability in liver microsomes; type: in vitro ADME, human; settings: for Remaining Percentage: human LM
Description: (§4) Microsome stability was assessed in duplicate (n = 2) in the presence and absence of nicotinamide adenine dinucleotide phosphate (NADPH) with liver microsomes (0.5 mg/mL) from human (BD Gentest) and Sprague-Dawley rats (BD Gentest). Compounds were incubated in liver microsomes at 1 μM and samples (30 μL) were taken at 0.5, 15, 30, 45, and 60 min time points for analysis by LC-MS/MS. Hepatocyte stability was assessed in duplicate (n = 2) at a working cell density of 0.5 × 10^6 cells/mL with hepatocytes from human (BiolVT), Sprague-Dawley rat (BiolVT), cynomolgus monkey (RILD) or beagle dog (BiolVT). […] The in vitro half-life and intrinsic clearances were determined as previously described.[76]
(§5) In vitro half-life (in vitro t1/2) was determined from the slope value in [drawing 1] where k was determined by linear regression of the natural logarithm of the remaining percentage of the parent drug vs the incubation time curve.

[4] = system: MDCKII-MDR1 cells; assay: MDCKII-MDR1 permeability; type: in vitro ADME, canine; settings: MDCKII-MDR1
Description: (§6) A 96-well HTS Transwell plate (Corning) was used for Caco-2 and MDCKII-MDR1 cell seeding. […] Plates were incubated at 37 °C for 2 h, and samples (50 μL) were taken at the beginning and end of the incubation in both the donor and acceptor wells with the assay run in duplicate (n = 2). Samples were analyzed by LC-MS/MS.
(§7) The efflux ratio was determined by using the following equation: [drawing 4] where Papp (B–A) indicates the apparent permeability in the basolateral to apical direction and Papp (A–B) indicates the apparent permeability in the apical to basolateral direction.

[5] = MDCKII-MDR1 permeability; type: in vitro ADME, canine; settings: dog, MDCK-MDR1, MDCKII-MDR1
Description: as §6, §7

[6] = system: MDR1; assay: MDCKII-MDR1 permeability; type: in vitro ADME, canine; settings: dog, MDCK-MDR1
Description: as §6, §7

[7] = Plasma stability; type: in vitro ADME, Sprague-Dawley rat; settings: rat plasma
Description: as §1

[8] = molecular target: T1, EGFRL858R (Homo sapiens, UniProt P00533, L858R); assay: KINOMEScan KdELECT Kd determination; type: binding; parameters: purchased Eurofins DiscoverX (contract assay)
T1 sequence (P00533 25-1210 L858R): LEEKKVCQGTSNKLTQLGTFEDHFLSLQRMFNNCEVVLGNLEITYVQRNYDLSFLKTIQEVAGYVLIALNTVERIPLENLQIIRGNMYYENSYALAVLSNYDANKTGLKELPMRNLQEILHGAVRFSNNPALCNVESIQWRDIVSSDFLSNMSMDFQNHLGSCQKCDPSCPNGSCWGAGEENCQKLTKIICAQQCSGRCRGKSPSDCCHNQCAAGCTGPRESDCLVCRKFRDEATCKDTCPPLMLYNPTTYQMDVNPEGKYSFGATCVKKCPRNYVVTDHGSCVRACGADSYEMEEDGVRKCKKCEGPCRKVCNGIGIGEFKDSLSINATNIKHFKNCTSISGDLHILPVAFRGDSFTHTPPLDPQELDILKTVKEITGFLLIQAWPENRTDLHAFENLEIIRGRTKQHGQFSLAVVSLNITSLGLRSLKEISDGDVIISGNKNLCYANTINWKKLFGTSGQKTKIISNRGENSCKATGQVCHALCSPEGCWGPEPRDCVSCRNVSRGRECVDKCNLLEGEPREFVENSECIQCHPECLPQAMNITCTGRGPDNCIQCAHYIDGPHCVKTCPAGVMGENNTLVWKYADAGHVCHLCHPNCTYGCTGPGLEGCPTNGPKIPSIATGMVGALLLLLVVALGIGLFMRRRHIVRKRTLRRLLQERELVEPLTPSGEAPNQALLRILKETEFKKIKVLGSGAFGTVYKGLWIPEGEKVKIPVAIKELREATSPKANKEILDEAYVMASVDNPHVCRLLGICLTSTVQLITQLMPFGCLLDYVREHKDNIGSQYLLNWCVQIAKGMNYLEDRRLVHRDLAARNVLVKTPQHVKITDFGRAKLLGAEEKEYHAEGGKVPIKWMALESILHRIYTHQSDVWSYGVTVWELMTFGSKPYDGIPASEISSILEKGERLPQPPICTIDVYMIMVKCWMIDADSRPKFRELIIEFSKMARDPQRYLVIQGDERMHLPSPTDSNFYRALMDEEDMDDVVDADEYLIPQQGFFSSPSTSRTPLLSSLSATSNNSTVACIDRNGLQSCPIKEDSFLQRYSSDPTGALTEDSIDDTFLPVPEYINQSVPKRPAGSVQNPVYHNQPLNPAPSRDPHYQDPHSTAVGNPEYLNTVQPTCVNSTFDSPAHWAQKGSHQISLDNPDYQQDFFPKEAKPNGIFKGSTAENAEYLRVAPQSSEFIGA
Description: (§8) In vitro kinase activity (inhibitor binding constants (Kd) and biochemical inhibition (IC50’s)) were assessed by Eurofins DiscoverX (Kd determinations) and Eurofins Cerep (biochemical IC50 determinations).

[9] = molecular target: T2, EGFR del E746_A750 (Homo sapiens, UniProt P00533, DEL746-750); assay: KINOMEScan KdELECT Kd determination; type: binding
T2 construct: purchased Eurofins DiscoverX (contract assay)
T2 sequence (P00533 with tags, fused parts or gaps DEL746-750): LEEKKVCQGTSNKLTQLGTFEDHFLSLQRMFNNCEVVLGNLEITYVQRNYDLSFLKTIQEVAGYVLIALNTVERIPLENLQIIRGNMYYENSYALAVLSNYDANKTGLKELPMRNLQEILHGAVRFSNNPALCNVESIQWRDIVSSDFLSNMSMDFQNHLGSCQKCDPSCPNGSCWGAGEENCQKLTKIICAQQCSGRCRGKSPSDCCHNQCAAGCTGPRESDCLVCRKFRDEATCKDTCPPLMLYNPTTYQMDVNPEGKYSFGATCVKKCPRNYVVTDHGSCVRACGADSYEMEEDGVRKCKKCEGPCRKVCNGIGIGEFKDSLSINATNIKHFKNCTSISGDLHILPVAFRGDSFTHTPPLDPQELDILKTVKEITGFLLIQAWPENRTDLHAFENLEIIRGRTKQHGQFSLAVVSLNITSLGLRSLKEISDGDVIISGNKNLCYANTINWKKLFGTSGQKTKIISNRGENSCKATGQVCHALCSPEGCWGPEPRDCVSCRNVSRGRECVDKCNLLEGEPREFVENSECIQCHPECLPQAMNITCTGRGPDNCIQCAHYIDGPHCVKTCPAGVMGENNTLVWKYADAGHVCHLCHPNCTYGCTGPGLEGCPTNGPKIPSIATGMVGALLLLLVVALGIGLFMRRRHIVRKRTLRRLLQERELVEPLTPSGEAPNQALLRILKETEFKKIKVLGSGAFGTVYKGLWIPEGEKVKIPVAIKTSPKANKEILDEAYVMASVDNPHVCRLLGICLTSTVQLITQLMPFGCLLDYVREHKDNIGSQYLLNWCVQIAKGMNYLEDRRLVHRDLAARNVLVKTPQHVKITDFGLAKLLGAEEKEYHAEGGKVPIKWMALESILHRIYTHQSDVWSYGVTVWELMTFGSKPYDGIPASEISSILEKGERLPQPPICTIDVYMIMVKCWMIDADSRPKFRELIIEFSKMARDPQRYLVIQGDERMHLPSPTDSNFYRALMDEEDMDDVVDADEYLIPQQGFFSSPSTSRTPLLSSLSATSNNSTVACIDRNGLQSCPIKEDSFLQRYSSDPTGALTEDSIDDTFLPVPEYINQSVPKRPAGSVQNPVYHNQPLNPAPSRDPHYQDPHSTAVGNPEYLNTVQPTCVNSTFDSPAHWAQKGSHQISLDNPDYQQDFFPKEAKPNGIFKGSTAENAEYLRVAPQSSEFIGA
Description: as §8

[10] = Caco-2 permeability; type: in vitro ADME; settings: human; for recovery at 2 h, 5 μM: Caco-2, Caco-2
Description: as §6, §7

[11] = system: Caco-2 cells; assay: Caco-2 permeability; type: in vitro ADME; settings: Caco-2
Description: as §6, §7

[12] = molecular target: T3, EGFRwt (Homo sapiens, UniProt P00533); assay: KINOMEScan KdELECT Kd determination; type: binding; settings: wt; read-out: EGFR Kd
T3 construct: purchased Eurofins DiscoverX (contract assay)
T3 sequence (P00533 25-1210): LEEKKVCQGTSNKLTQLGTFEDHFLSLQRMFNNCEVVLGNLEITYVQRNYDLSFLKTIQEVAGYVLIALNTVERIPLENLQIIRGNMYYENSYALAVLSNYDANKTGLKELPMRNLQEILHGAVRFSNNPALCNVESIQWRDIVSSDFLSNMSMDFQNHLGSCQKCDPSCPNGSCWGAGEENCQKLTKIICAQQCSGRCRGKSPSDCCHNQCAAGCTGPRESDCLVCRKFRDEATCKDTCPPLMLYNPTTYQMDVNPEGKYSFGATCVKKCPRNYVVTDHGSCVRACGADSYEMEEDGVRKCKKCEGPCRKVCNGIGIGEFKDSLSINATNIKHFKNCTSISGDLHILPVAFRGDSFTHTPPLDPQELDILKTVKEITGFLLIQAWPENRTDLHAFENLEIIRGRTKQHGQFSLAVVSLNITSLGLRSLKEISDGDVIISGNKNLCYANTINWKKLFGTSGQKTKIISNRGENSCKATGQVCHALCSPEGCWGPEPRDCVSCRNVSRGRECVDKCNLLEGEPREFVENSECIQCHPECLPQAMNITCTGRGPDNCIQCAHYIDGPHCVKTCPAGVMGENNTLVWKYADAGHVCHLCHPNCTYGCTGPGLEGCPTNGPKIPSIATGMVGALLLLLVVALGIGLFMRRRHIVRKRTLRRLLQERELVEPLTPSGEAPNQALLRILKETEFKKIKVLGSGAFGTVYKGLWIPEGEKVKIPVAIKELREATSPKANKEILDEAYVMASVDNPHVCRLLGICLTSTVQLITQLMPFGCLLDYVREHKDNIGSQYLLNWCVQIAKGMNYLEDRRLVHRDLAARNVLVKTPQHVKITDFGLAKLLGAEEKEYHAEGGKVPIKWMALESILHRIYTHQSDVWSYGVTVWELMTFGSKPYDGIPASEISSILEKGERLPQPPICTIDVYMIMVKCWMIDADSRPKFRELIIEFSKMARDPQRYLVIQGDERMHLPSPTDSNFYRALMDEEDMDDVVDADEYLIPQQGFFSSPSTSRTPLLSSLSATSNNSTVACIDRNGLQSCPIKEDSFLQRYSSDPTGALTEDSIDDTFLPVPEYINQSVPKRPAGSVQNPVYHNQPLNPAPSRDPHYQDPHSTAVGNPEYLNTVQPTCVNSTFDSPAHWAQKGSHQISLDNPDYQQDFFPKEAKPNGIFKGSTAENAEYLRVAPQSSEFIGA
Description: as §8

[13] = Solubility assay; type: physicochemical; settings: buffer, pH 7.4, aqueous buffer; read-out: Aq. Sol.
Description: Solubility was determined by Pharmaron, Inc. and each compound was assessed in duplicate (n = 2) by adding 15 μL of compound stock solution (10 mM in DMSO) into a 96-well plate along with 485 μL of buffer followed by shaking at 25 °C, 1100 rpm for 2 h. Wells were filtered, and samples (5 μL) were taken followed by dilution with an equal volume of DMSO (5 μL) and 490 μL of aqueous solution. Samples were analyzed by LC-MS/MS.

[14] = molecular target: T3, EGFRwt; assay: KinaseProfiler enzymatic radiometric assay; type: biochemical; settings: wt, ATP 10 μM; read-out: EGFR IC50
Description: as §8

[15] = molecular target: T1, EGFRL858R; assay: KinaseProfiler enzymatic radiometric assay; type: biochemical; parameters: purchased Eurofins Cerep (KinaseProfiler, contract assay); settings: ATP 10 μM, read-out: EGFR IC50
Description: as §8

[16] = system: NCI-H3255 (EGFR mutation = L858R); assay: CellTiter-Glo cell viability assay; type: cell-based, human; settings: Homo sapiens, NCI-H3255; 72 h, unadjusted for FBS
Description: as §2, §3

[17] = Metabolic stability in liver microsomes; type: in vitro ADME, Sprague-Dawley rat; settings: for Remaining Percentage: rat LM
Description: as §4, §5

[18] = Plasma protein binding by equilibrium dialysis; type: in vitro ADME; settings: human; for fraction unbound at 6 h, 5 μM: read-out: fu,plasma% / %Unbound (converted)
Description: Plasma protein binding and brain tissue binding were determined by Pharmaron, Inc. using the equilibrium dialysis method. […] Following incubation, the samples were analyzed by LC-MS/MS and the concentrations of the compounds were determined in the buffer and plasma solution chambers.

[19] = Lipophilicity, shake-flask; type: physicochemical; settings: 1-octanol/PBS; 1-octanol and PBS (pH 7.4); read-out: logD7.4
Description: Compound lipophilicity was determined by Pharmaron, Inc. using the shake-flask method with 1-octanol and PBS (pH 7.4). Each compound was assessed in duplicate (n = 2) at 1 μM in a 96-well plate shaken at 25 °C and 2000 rpm for 2 h. Samples were analyzed by liquid chromatography and tandem mass spectrometry (LC-MS/MS).

COc1cc2ncnc(Nc3ccc(F)c(Cl)c3)c2cc1OCCON1CCOCC1 [Compound 6, N-(3-Chloro-4-fluorophenyl)-7-methoxy-6-(2-(morpholinooxy)ethoxy)quinazolin-4-amine]
IC50 [1]: 4.2 nM
Remaining Percentages ([2]; 15 min): 98.26%
Remaining Percentages ([2]; 30 min): 102.87%
Remaining Percentages ([2]; 60 min): 101.74%
Remaining Percentages ([2]; 120 min): 97.90%
t1/2 ([2]; ∞ = no degradation): ∞
Remaining Percentage ([3]; +Cofactors, 15 min): 49.30%
Remaining Percentage ([3]; +Cofactors, 30 min): 28.74%
Remaining Percentage ([3]; +Cofactors, 45 min): 20.85%
Remaining Percentage ([3]; +Cofactors, 60 min): 14.00%
Remaining Percentage ([3]; -Cofactors, 60 min): 89.19%
half-life at 1 h, 1 µM ([3]; human, liver microsomes, read-out: LM t1/2): 21.6 min
microsomal CLint at 1 h, 1 µM ([3]; human, liver microsomes, read-out: LMClint): 64 µL/min/mg
increase in permeability compared to 1 [4]: roughly 4 fold
recovery at 2 h, 1 μM ([5]; read-out: Recovery% (AP-BL)): 51.6%
recovery at 2 h, 1 μM ([5]; read-out: Recovery% (BL-AP)): 66.4%
efflux ratio at 2 h, 1 µM [6]: 2
efflux ratio at 2 h, 1 μM [6]: 1.99
Papp A→B at 2 h, 1 µM ([6]; 1 μM, 2 h): 42 nm/s
Papp A→B at 2 h, 1 μM ([6]; 1 μM, 2 h): 41.9 nm/s
Papp B→A at 2 h, 1 µM ([6]; 1 μM, 2 h): 83 nm/s
Papp B→A at 2 h, 1 μM ([6]; 1 μM, 2 h): 82.6 nm/s
Remaining Percentages ([7]; 15 min): 100.23%
Remaining Percentages ([7]; 30 min): 99.35%
Remaining Percentages ([7]; 60 min): 99.28%
Remaining Percentages ([7]; 120 min): 104.21%
t1/2 ([7]; ∞ = no degradation): ∞
Kd ([8]; L858R): 0.8 nM
binding and biochemical inhibition of activating mutant bearing EGFR ([8]; in words, Tables S1 and S3): single-digit nanomolar
Kd [9]: 0.3 nM
efflux ratio at 2 h, 5 µM ([10]; Caco-2): 1.9
efflux ratio at 2 h, 5 μM ([10]; Caco-2): 1.91
recovery at 2 h, 5 μM ([10]; read-out: Recovery% (AP-BL)): 53.8%
recovery at 2 h, 5 μM ([10]; read-out: Recovery% (BL-AP)): 60.3%
Papp A→B at 2 h, 5 µM ([10]; Caco-2, 5 μM, 2 h): 56 nm/s
Papp A→B at 2 h, 5 μM ([10]; Caco-2, 5 μM, 2 h): 55.9 nm/s
Papp B→A at 2 h, 5 µM ([10]; Caco-2, 5 μM, 2 h): 107 nm/s
Papp B→A at 2 h, 5 μM ([10]; Caco-2, 5 μM, 2 h): 107 nm/s
enhancement in permeability compared with 1 [11]: 14 fold
Kd [12]: 0.6 nM
solubility kinetic at 2 h [13]: 1 µM (≈ 0.449 µg/mL)
IC50 [14]: 5 nM
IC50 [15]: < 1 nM
IC50 [16]: 88 nM
half-life at 1 h, 1 µM ([17]; Sprague-Dawley, rat, liver microsomes, read-out: LM t1/2): 19.5 min
microsomal CLint at 1 h, 1 µM ([17]; Sprague-Dawley, rat, liver microsomes, read-out: LMClint): 71 µL/min/mg
Remaining Percentage ([17]; +Cofactors, 15 min): 50.62%
Remaining Percentage ([17]; +Cofactors, 30 min): 25.81%
Remaining Percentage ([17]; +Cofactors, 45 min): 17.98%
Remaining Percentage ([17]; +Cofactors, 60 min): 11.88%
Remaining Percentage ([17]; -Cofactors, 60 min): 109.68%
recovery at 6 h, 5 μM ([18]; human plasma): 101%
remaining at 6 h, 5 μM ([18]; human plasma): 99.5%
fraction unbound at 6 h, 5 μM ([18]; human plasma): 0.0512
fraction unbound at 6 h, 5 μM ([18]; plasma, 5 μM): 0.0512
logD at 2 h, 1 µM [19]: 3.9
